Assay results published in ChEMBL document CHEMBL3244250, “Bisamidines of 2,6-diaminoanthraquinone as antiamebic agents” (J Med Chem, 1978).
Activity calls are given as the source filed them. No cut-off for these calls is given here.

How the values were obtained:
Syrian golden hamster [1] = experiment: Toxicity in golden hamster assessed as reduction in water and food intake administered qd for 5 days; format: organism-based, Mesocricetus auratus; conditions: in vivo, 120 h
Entamoeba histolytica [2] = experiment: Antimicrobial activity against Entamoeba histolytica NIH 200-mu cecal forms infected in Wistar albino rat assessed as cure rate administered qd for 5 days by microscopic analysis; format: functional; conditions: for minimal effective dose: 120 h, read-out: MED
Rattus norvegicus [3] = experiment: Toxicity in Wistar albino rat assessed as reduction in water and food intake administered qd for 5 days; format: organism-based; conditions: in vivo, 120 h
Syrian golden hamster [4] = experiment: Toxicity in golden hamster assessed as general listlessness administered qd for 5 days; format: organism-based, Mesocricetus auratus; conditions: in vivo, 120 h
Entamoeba histolytica [5] = experiment: Antimicrobial activity against Entamoeba histolytica NIH 200-mu hepatic forms infected in golden hamster assessed as survival rate administered qd for 5 days measured up to 14 days by microscopic analysis; format: functional; conditions: for minimal effective dose: read-out: MED
Rattus norvegicus [6] = experiment: Toxicity in Wistar albino rat assessed as general listlessness administered qd for 5 days; format: organism-based; conditions: in vivo, 120 h
Rattus norvegicus [7] = experiment: Toxicity in Wistar albino rat assessed as general listlessness up to 150 mg/kg administered qd for 5 days; format: organism-based; set-up: dose 150 mg/kg; conditions: in vivo, 120 h
Syrian golden hamster [8] = experiment: Toxicity in golden hamster assessed as general listlessness up to 150 mg/kg administered qd for 5 days; format: organism-based, Mesocricetus auratus; set-up: dose 150 mg/kg; conditions: in vivo, 120 h
Rattus norvegicus [9] = experiment: Toxicity in Wistar albino rat assessed as reduction in water and food intake up to 150 mg/kg administered qd for 5 days; format: organism-based; set-up: dose 150 mg/kg; conditions: in vivo, 120 h
Syrian golden hamster [10] = experiment: Toxicity in golden hamster assessed as reduction in water and food intake up to 150 mg/kg administered qd for 5 days; format: organism-based, Mesocricetus auratus; set-up: dose 150 mg/kg; conditions: in vivo, 120 h
Salmonella typhimurium = experiment: Mutagenic activity in Salmonella typhimurium by Ames test; format: toxicity, organism-based; conditions: salmonella enterica subsp. enterica serovar typhimurium

SMILES: CCCCCCCCN(C)/C=N/c1ccc2c(c1)C(=O)c1ccc(/N=C/N(C)CCCCCCCC)cc1C2=O
- Activity (Syrian golden hamster [1]): Toxic
- minimal effective dose (Entamoeba histolytica [2]): 50 mg/kg
- Activity (Rattus norvegicus [3]): Toxic
- Activity (Syrian golden hamster [4]): Toxic
- Activity (Entamoeba histolytica [5]): inactive
- Activity (Rattus norvegicus [6]): Toxic

SMILES: O=C1c2ccc(N/C3=N/CCCCCC3)cc2C(=O)c2ccc(N/C3=N/CCCCCC3)cc21
- Activity (Rattus norvegicus [7]): Non-toxic
- minimal effective dose (Entamoeba histolytica [2]): 20 mg/kg
- Activity (Syrian golden hamster [8]): Non-toxic
- Activity (Entamoeba histolytica [5]): inactive
- Activity (Rattus norvegicus [9]): Non-toxic
- Activity (Syrian golden hamster [10]): Non-toxic

SMILES: CCS(=O)(=O)CCn1c([N+](=O)[O-])cnc1C [TINIDAZOLE]
- minimal effective dose (Entamoeba histolytica [2]): 5 mg/kg
- minimal effective dose (Entamoeba histolytica [5]): 25 mg/kg

SMILES: CN(C)/C(=N/c1ccc2c(c1)C(=O)c1ccc(/N=C(\c3ccc(Cl)cc3)N(C)C)cc1C2=O)c1ccc(Cl)cc1
- minimal effective dose (Entamoeba histolytica [2]): 20 mg/kg
- minimal effective dose (Entamoeba histolytica [5]): 50 mg/kg
- Activity (Salmonella typhimurium): Non-toxic

SMILES: C/C(=N/c1cccc2c1C(=O)c1cccc(/N=C(/C)N(C)C)c1C2=O)N(C)C
- Activity (Entamoeba histolytica [2]): inactive
- Activity (Entamoeba histolytica [5]): inactive

SMILES: CC(C)N(/C=N/c1ccc2c(c1)C(=O)c1ccc(/N=C/N(C(C)C)C(C)C)cc1C2=O)C(C)C
- Activity (Syrian golden hamster [1]): Toxic
- minimal effective dose (Entamoeba histolytica [2]): 20 mg/kg
- Activity (Rattus norvegicus [3]): Toxic
- Activity (Syrian golden hamster [4]): Toxic
- minimal effective dose (Entamoeba histolytica [5]): 100 mg/kg
- Activity (Rattus norvegicus [6]): Toxic

SMILES: CC/C(N)=N\c1ccc2c(c1)C(=O)c1ccc(/N=C(/N)CC)cc1C2=O
- Activity (Rattus norvegicus [7]): Non-toxic
- Activity (Entamoeba histolytica [2]): inactive
- Activity (Syrian golden hamster [8]): Non-toxic
- Activity (Entamoeba histolytica [5]): inactive
- Activity (Rattus norvegicus [9]): Non-toxic
- Activity (Syrian golden hamster [10]): Non-toxic

SMILES: CCN(CC)/C(=N/c1ccc2c(c1)C(=O)c1ccc(/N=C(\C3CC3)N(CC)CC)cc1C2=O)C1CC1
- minimal effective dose (Entamoeba histolytica [2]): 20 mg/kg
- Activity (Entamoeba histolytica [5]): inactive

SMILES: O=C1c2ccc(/N=C(\c3ccccc3)N3CCCCC3)cc2C(=O)c2ccc(/N=C(\c3ccccc3)N3CCCCC3)cc21
- minimal effective dose (Entamoeba histolytica [2]): 10 mg/kg
- Activity (Entamoeba histolytica [5]): inactive

SMILES: CN(C)/C=N/c1ccc2c(c1)C(=O)c1ccccc1C2=O
- Activity (Syrian golden hamster [1]): Toxic
- Activity (Entamoeba histolytica [2]): inactive
- Activity (Rattus norvegicus [3]): Toxic
- Activity (Syrian golden hamster [4]): Toxic
- Activity (Entamoeba histolytica [5]): inactive
- Activity (Rattus norvegicus [6]): Toxic

SMILES: CCCCN(C)/C(CC)=N/c1ccc2c(c1)C(=O)c1ccc(/N=C(\CC)N(C)CCCC)cc1C2=O
- Activity (Rattus norvegicus [7]): Non-toxic
- minimal effective dose (Entamoeba histolytica [2]): 20 mg/kg
- Activity (Syrian golden hamster [8]): Non-toxic
- minimal effective dose (Entamoeba histolytica [5]): 50 mg/kg
- Activity (Rattus norvegicus [9]): Non-toxic
- Activity (Syrian golden hamster [10]): Non-toxic

SMILES: CC/C(=N\c1ccc2c(c1)C(=O)c1ccc(/N=C(\CC)N3CCN(C)CC3)cc1C2=O)N1CCN(C)CC1
- Activity (Rattus norvegicus [7]): Non-toxic
- minimal effective dose (Entamoeba histolytica [2]): 20 mg/kg
- Activity (Syrian golden hamster [8]): Non-toxic
- Activity (Entamoeba histolytica [5]): inactive
- Activity (Rattus norvegicus [9]): Non-toxic
- Activity (Syrian golden hamster [10]): Non-toxic

SMILES: C/C(=N\c1ccc2c(c1)C(=O)c1ccc(/N=C(\C)N3CCCCC3)cc1C2=O)N1CCCCC1
- Activity (Rattus norvegicus [7]): Non-toxic
- minimal effective dose (Entamoeba histolytica [2]): 50 mg/kg
- Activity (Syrian golden hamster [8]): Non-toxic
- minimal effective dose (Entamoeba histolytica [5]): 100 mg/kg
- Activity (Rattus norvegicus [9]): Non-toxic
- Activity (Syrian golden hamster [10]): Non-toxic

SMILES: O=C1c2ccc(/N=C/N3CCCCC3)cc2C(=O)c2ccc(/N=C/N3CCCCC3)cc21
- Activity (Syrian golden hamster [1]): Toxic
- minimal effective dose (Entamoeba histolytica [2]): 20 mg/kg
- Activity (Rattus norvegicus [3]): Toxic
- Activity (Syrian golden hamster [4]): Toxic
- minimal effective dose (Entamoeba histolytica [5]): 100 mg/kg
- Activity (Rattus norvegicus [6]): Toxic

SMILES: CN(C)/C(=N/c1ccc2c(c1)C(=O)c1ccc(/N=C(\C3CC3)N(C)C)cc1C2=O)C1CC1
- minimal effective dose (Entamoeba histolytica [2]): 10 mg/kg
- minimal effective dose (Entamoeba histolytica [5]): 50 mg/kg
- Activity (Salmonella typhimurium): Non-toxic

SMILES: O=[N+]([O-])c1cncn1CCN1CCOCC1 [NIMORAZOLE]
- minimal effective dose (Entamoeba histolytica [2]): 20 mg/kg
- minimal effective dose (Entamoeba histolytica [5]): 100 mg/kg

SMILES: CN(C)/C=N\c1ccc(/N=C\N(C)C)c2c1C(=O)c1ccccc1C2=O
- Activity (Entamoeba histolytica [2]): inactive
- Activity (Entamoeba histolytica [5]): inactive

SMILES: Cc1ncc([N+](=O)[O-])n1CCO [METRONIDAZOLE]
- minimal effective dose (Entamoeba histolytica [2]): 10 mg/kg
- minimal effective dose (Entamoeba histolytica [5]): 10 mg/kg

SMILES: CN(C)/C=N\c1cccc2c1C(=O)c1cccc(/N=C\N(C)C)c1C2=O
- Activity (Entamoeba histolytica [2]): inactive
- Activity (Entamoeba histolytica [5]): inactive

SMILES: C/C(N)=N\c1ccc2c(c1)C(=O)c1ccc(/N=C(\C)N)cc1C2=O
- Activity (Rattus norvegicus [7]): Non-toxic
- minimal effective dose (Entamoeba histolytica [2]): 10 mg/kg
- Activity (Syrian golden hamster [8]): Non-toxic
- Activity (Entamoeba histolytica [5]): inactive
- Activity (Rattus norvegicus [9]): Non-toxic
- Activity (Syrian golden hamster [10]): Non-toxic

SMILES: CCN/C(C)=N/c1ccc2c(c1)C(=O)c1ccc(/N=C(\C)NCC)cc1C2=O
- Activity (Rattus norvegicus [7]): Non-toxic
- minimal effective dose (Entamoeba histolytica [2]): 10 mg/kg
- Activity (Syrian golden hamster [8]): Non-toxic
- Activity (Entamoeba histolytica [5]): inactive
- Activity (Rattus norvegicus [9]): Non-toxic
- Activity (Syrian golden hamster [10]): Non-toxic

SMILES: CN(C)/C=N/c1ccc2c(c1)C(=O)c1ccc(/N=C/N(C)C)cc1C2=O
- Activity (Syrian golden hamster [1]): Toxic
- minimal effective dose (Entamoeba histolytica [2]): 20 mg/kg
- Activity (Rattus norvegicus [3]): Toxic
- Activity (Syrian golden hamster [4]): Toxic
- minimal effective dose (Entamoeba histolytica [5]): 10 mg/kg
- Activity (Rattus norvegicus [6]): Toxic

SMILES: CCN(C(C)=O)/C(C)=N/c1ccc2c(c1)C(=O)c1ccc(/N=C(\C)N(CC)C(C)=O)cc1C2=O
- Activity (Rattus norvegicus [7]): Non-toxic
- Activity (Entamoeba histolytica [2]): inactive
- Activity (Syrian golden hamster [8]): Non-toxic
- Activity (Entamoeba histolytica [5]): inactive
- Activity (Rattus norvegicus [9]): Non-toxic
- Activity (Syrian golden hamster [10]): Non-toxic

SMILES: CN(C)/C(=N/c1ccc2c(c1)C(=O)c1ccc(/N=C(\C3CCC3)N(C)C)cc1C2=O)C1CCC1
- minimal effective dose (Entamoeba histolytica [2]): 20 mg/kg
- minimal effective dose (Entamoeba histolytica [5]): 50 mg/kg
- Activity (Salmonella typhimurium): Non-toxic

SMILES: CCN(CC)/C(C)=N/c1ccc2c(c1)C(=O)c1ccc(/N=C(\C)N(CC)CC)cc1C2=O
- Activity (Rattus norvegicus [7]): Non-toxic
- minimal effective dose (Entamoeba histolytica [2]): 10 mg/kg
- Activity (Syrian golden hamster [8]): Non-toxic
- minimal effective dose (Entamoeba histolytica [5]): 2.5 mg/kg
- Activity (Salmonella typhimurium): Non-toxic
- Activity (Rattus norvegicus [9]): Non-toxic
- Activity (Syrian golden hamster [10]): Non-toxic

SMILES: CC/C(=N\c1ccc2c(c1)C(=O)c1ccc(/N=C(\CC)N3CCCCC3)cc1C2=O)N1CCCCC1
- Activity (Rattus norvegicus [7]): Non-toxic
- minimal effective dose (Entamoeba histolytica [2]): 50 mg/kg
- Activity (Syrian golden hamster [8]): Non-toxic
- Activity (Entamoeba histolytica [5]): inactive
- Activity (Rattus norvegicus [9]): Non-toxic
- Activity (Syrian golden hamster [10]): Non-toxic

SMILES: CCN(CC)/C(C)=N\c1ccc(/N=C(/C)N(CC)CC)c2c1C(=O)c1ccccc1C2=O
- Activity (Entamoeba histolytica [2]): inactive
- Activity (Entamoeba histolytica [5]): inactive

SMILES: CCN(CC)/C(=N/c1ccc2c(c1)C(=O)c1ccc(/N=C(/N(CC)CC)C(C)(C)C)cc1C2=O)C(C)(C)C
- minimal effective dose (Entamoeba histolytica [2]): 20 mg/kg
- minimal effective dose (Entamoeba histolytica [5]): 50 mg/kg

SMILES: CC(C)C/C(=N\c1ccc2c(c1)C(=O)c1ccc(/N=C(\CC(C)C)N(C)C)cc1C2=O)N(C)C
- minimal effective dose (Entamoeba histolytica [2]): 20 mg/kg
- minimal effective dose (Entamoeba histolytica [5]): 50 mg/kg

SMILES: C/C(=N\c1ccc2c(c1)C(=O)c1ccc(/N=C(\C)N(C)C)cc1C2=O)N(C)C
- Activity (Rattus norvegicus [7]): Non-toxic
- minimal effective dose (Entamoeba histolytica [2]): 5 mg/kg
- Activity (Syrian golden hamster [8]): Non-toxic
- minimal effective dose (Entamoeba histolytica [5]): 2.5 mg/kg
- Activity (Salmonella typhimurium): Non-toxic
- Activity (Rattus norvegicus [9]): Non-toxic
- Activity (Syrian golden hamster [10]): Non-toxic

SMILES: CCC/C(=N\c1ccc2c(c1)C(=O)c1ccc(/N=C(\CCC)N(C)C)cc1C2=O)N(C)C
- minimal effective dose (Entamoeba histolytica [2]): 20 mg/kg
- minimal effective dose (Entamoeba histolytica [5]): 50 mg/kg

SMILES: CN/C(C)=N/c1ccc2c(c1)C(=O)c1ccc(/N=C(\C)NC)cc1C2=O
- Activity (Rattus norvegicus [7]): Non-toxic
- minimal effective dose (Entamoeba histolytica [2]): 10 mg/kg
- Activity (Syrian golden hamster [8]): Non-toxic
- Activity (Entamoeba histolytica [5]): inactive
- Activity (Rattus norvegicus [9]): Non-toxic
- Activity (Syrian golden hamster [10]): Non-toxic

SMILES: CC/C(=N\c1ccc2c(c1)C(=O)c1ccc(/N=C(\CC)N(C)C)cc1C2=O)N(C)C
- Activity (Rattus norvegicus [7]): Non-toxic
- minimal effective dose (Entamoeba histolytica [2]): 10 mg/kg
- Activity (Syrian golden hamster [8]): Non-toxic
- minimal effective dose (Entamoeba histolytica [5]): 2.5 mg/kg
- Activity (Rattus norvegicus [9]): Non-toxic
- Activity (Syrian golden hamster [10]): Non-toxic
